The subject of assay [1] is mammary carcinoma. Nature of the assay: Incidence of mammary carcinoma, 104-week oral gavage study. Type of assay: in vivo. To be noted: 104 weeks, female rats. The protocol: Female Crl:CD(SD)IGS BR VAF/Plus rats were assigned to 4 study groups (65/group). Groups 2 through 4 received 20, 100, or 400 μg/kg/day of COMPOUND A, respectively, by oral gavage for 104 weeks. The control group (Group 1) received 10 the vehicle, a 1% aqueous solution of Polysorbate 80. The dose volume was 5 mL/kg/day for all groups. When unscheduled death of animal occurred during the study period, a necropsy was performed on the animal. After 104 weeks of treatment, all surviving animals were sacrificed and necropsied. Each rat was evaluated microscopically for the occurrence of mammary carcinoma.

Assay [2] deals with ischemia-injured porcine ileum. Nature of the assay: Ussing chamber: short circuit current (Isc) and transepithelial electrical resistance (TER). Type of assay: cell-based. To be noted: for absolute change in Isc (Δ Isc): mean±SE. The method, then: (§1) Six to eight-week-old Yorkshire crossbred pigs of either sex were housed individually, and maintained on a commercial pelleted feed. Pigs were held off feed for 24 hours prior to experimental surgery. General anesthesia was induced with xylazine (1.5 mg/kg, IM), ketamine (11 mg/kg, IM), and thiopental (15 mg/kg, IV) and was maintained with intermittent infusion of thiopental (6-8 mg/kg/hr). Pigs were placed on a heating pad and ventilated with 100% O2 via a tracheotomy using a time-cycled ventilator. The jugular vein and carotid artery were cannulated and blood gas analysis was performed to confirm normal pH and partial pressures of CO2 and O2. Lactated Ringers solution was administered intravenously at a maintenance rate of 15 ml/kg/hr. The ileum was approached via ventral midline incision. Ileal segments were delineated by ligating the intestine at 10 cm intervals, and subjected to ischemia by occluding the local mesenteric blood supply for 45 minutes.
Following the 45-minute ischemic period, tissues were harvested from the pig and the mucosa was stripped from the seromuscular layer in oxygenated (95% O2/ 5% CO2) Ringer's solution (mmol/l: Na^+, 154; K+, 6.3; Cl^−, 137; HCO3^−, 24; pH 7.4) containing 5×10^−6 M indomethacin to prevent endogenous PG production during the stripping procedure. Tissues were then mounted in 3.14 cm^2 aperture Ussing chambers. For Ussing chamber experiments, ileal tissues from one pig were mounted on multiple Ussing chambers and subjected to different in vitro treatments. Tissues were bathed on the serosal and mucosal sides with 10 ml Ringer's solution. The serosal bathing solution contained 10 mM glucose, and was osmotically balanced on the mucosal side with 10 mM mannitol. Bathing solutions were oxygenated (95% O2/5% CO2) and circulated in water-jacketed reservoirs. The spontaneous potential difference (PD) was measured using Ringer-agar bridges connected to calomel electrodes, and the PD was short-circuited through Ag—AgCl electrodes using a voltage clamp that corrected for fluid resistance. Transepithelial electrical resistance (Ω.cm^2) was calculated from the spontaneous PD and short-circuit current (Isc). If the spontaneous PD was between −1.0 and 1.0 mV, tissues were current clamped at ±100 μA for 5 seconds and the PD recorded. Short-circuit current and PD were recorded at 15-minute intervals over a 4-hour experiment.
After tissues were mounted on Ussing chambers, tissues were allowed to acclimate for a period of 30 minutes to achieve stable baseline measurements. Tissues were then treated with varying doses of COMPOUND A (13,14-dihydro-15-keto-16,16-difluoro-PGE1) (0.01 μM, 0.1 μM, and 1 μM) by adding the compound to the mucosal bathing solution (t=30 min).
Data were reported as means±SE. All data were analyzed by using an ANOVA for repeated measures, except where the peak response was analyzed by using a standard one-way ANOVA (Sigmastat, Jandel Scientific, San Rafael, Calif.). A Tukey's test was used to determine differences between treatments following ANOVA.

Assay [3] has as its system ischemia-injured porcine ileum. Nature of the assay: Mucosal-to-serosal 3H-mannitol flux in Ussing chamber. Type of assay: cell-based. To be noted: 1 μM; n=4; P<0.05. The method, then:
as §1, with “Lactated Ringers solution was administered intravenously at a maintenance rate of 15 ml/kg/hr. The ileum was approached via ventral midline incision. Ileal segments were delineated by ligating the intestine at 10 cm intervals, and subjected to ischemia by occluding the local mesenteric blood supply for 45 minutes.” left out
Following the 45-minute ischemic period, tissues were harvested from the pig and the mucosa was stripped from the seromuscular layer in oxygenated (95% O2/ 5% CO2) Ringer's solution (mmol/l: Na^+, 154; K+, 6.3; Cl^−, 137; HCO3^−, 24; pH 7.4) containing 5×10^−6 M indomethacin to prevent endogenous PG production during the stripping procedure. […] The spontaneous potential difference (PD) was measured using Ringer-agar bridges connected to calomel electrodes, and the PD was short-circuited through Ag—AgCl electrodes using a voltage clamp that corrected for fluid resistance. Transepithelial electrical resistance (Ω.cm^2) was calculated from the spontaneous PD and short-circuit current (Isc). […]

Assay [4] has as its system ischemia-injured porcine ascending colon. Put plainly: Serosal to mucosal 3H-mannitol fluxes in colon. Type of assay: cell-based. The conditions noted are these: ischemic porcine ascending colon, FIG. 6. From the text: (§2) According to the same procedure described in Example 1 except for using colon instead of ileum, recovery of mucosal barrier function in ischemic condition by the COMPOUND A was investigated.
(§3) A) Change in short circuit current response to COMPOUND A in ischemia-injured porcine ascending colon, B) Trans epithelial electrical resistance (TER) in response to COMPOUND A in ischemia-injured porcine ascending colon and C) Serosal to mucosal ^3H-mannitol fluxes in response to COMPOUND A in ischemia-injured porcine ascending colon were shown in FIGS. 4 to 6 respectively.

Assay [5] has as its system ischemic-injured porcine ileal mucosa. Put plainly: Morphometric assessment of epithelial restitution (histological examination). The format is cell-based. The conditions noted are these: Indo 5 μM, COMPOUND A 1 μM, mean±SE, n=3. The method, then: as §1
Tissues were taken at 0, 60, and 180 minutes for routine histologic evaluation. Tissues were sectioned (5 μm) and stained with hematoxylin and eosin. For each tissue, 3 sections were evaluated. Four well oriented villi and crypts were identified in each section. Villus length was obtained using a micrometer in the eye piece of a light microscope. In addition, the height of the epithelial-covered portion of each villus was measured. The surface area of the villus was calculated using the formula for the surface area of a cylinder. The formula was modified by subtracting the area of the base of the villus, and multiplying by a factor accounting for the variable position at which each villus was cross-sectioned (Gastroenterology 1993; 104:440-471). The percentage of the villous surface area that remained denuded was calculated from the total surface area of the villus and the surface area of the villus covered by epithelium. The percent denuded villous surface area was used as an index of epithelial restitution.
In table 1, values represents means±SE for % villus surface area denuded and Villus height; n=3. Tissues were mammalian ileum subjected to 45 min ischemia in vivo, after which they were mounted in Ussing chambers for monitoring of recovery responses. Tissues were harvested at 0 min, 60 min, and 180 min post-ischemia during the in vitro recovery phase, fixed in 10% buffered formalin, and processed for histological examination according to standard protocols. Indomethacin (Indo) was administered to select tissues a 5 μM, and COMPOUND A was given at 1 μM. Values lacking common superscript.(*,#) differ by P<0.05.

Assay [6] relates to ischemia-injured porcine ascending colon. Put plainly: Ussing chamber: short circuit current and TER in colon. The format is cell-based. The conditions noted are these: ischemic porcine ascending colon.
Description: as §2, §3

For assay [7], the system named is barrier function. The conditions noted are these: Am. J. Physiol. Gastrointest. Liver Physiol. 281:G375-81, 2001; cited from earlier work.
[8] abbreviates: 1 μM applied to mucosal side, indomethacin 5×10^−6 M Ringer's, P<0.01.

“Also recorded” adds a separate entry of the source. Marks after values point to notes of the source that are not given here.

Consider `CCCCC(F)(F)C(=O)CCC1C(O)CC(=O)C1CCCCCCC(=O)O` (centres unmarked) [COMPOUND A, 13,14-dihydro-15-keto-16,16-difluoro-PGE1], for which the “Number of animals with mammary carcinoma” value in assay [1] (20 μg/kg/day oral gavage, 65 examined (control 12 of 65)) turned out to be 6; in assay [1] (100 μg/kg/day oral gavage, 65 examined (control 12 of 65)), 5; in assay [1] (400 μg/kg/day oral gavage, 63 examined (control 12 of 65)), 4. Further, in assay [1] (20, 100 or 400 μg/kg/day oral gavage), the “incidence of mammary carcinoma (result in words)” value is “reduced the incidence of mammary carcinoma”. For the same molecule, the “TER (result in words)” value in assay [2] (0.01 μM, 0.1 μM and 1 μM applied to mucosal side) is on record as “dose-dependent increases in TER”; in assay [6] (FIG. 5), “increased”. In addition, the figures for the “absolute change in Isc (Δ Isc)” value in assay [2] (0.01 μM), in assay [2] (0.1 μM) and in assay [2] (1 μM) were 2±0.8, 16±4.5 and 29±5.1, respectively. Also, in assay [2] (0.1 μM and 1 μM doses, added after 30-min equilibration, n=6), the “transepithelial electrical resistance (TER) (FIG. 1 legend, words)” value is “marked elevations in transepithelial electrical resistance (TER)”. The “Isc, electrogenic Cl− secretion (result in words)” value in assay [2] (0.1 μM and 1 μM, dose-dependent) was “sharp and significant (P<0.05) peaks in Isc”. For the same molecule, in assay [2] (setting [8]), the “increase in TER” value was found to be 2 fold. Further, the ΔTER in assay [2] (setting [8]) is reported as 26 Ω. For the same molecule, the “Cl− secretion indicated by Isc and ΔIsc (FIG. 2 legend, words)” value in assay [2] (increasing doses, n=6) is on record as “Significant (P<0.05) increases in Cl^− secretion”. Also, the “3H-mannitol mucosal-to-serosal flux (result in words)” value in assay [3] is “return of ^3H-mannitol flux to non-ischemic control levels; also recorded: reduced ^3H-mannitol mucosal-to-serosal fluxes to non-ischemic control levels”. The “serosal-to mucosal fluxes of 3H-mannitol (result in words)” value in assay [4] is “recuded serosal-to mucosal fluxes of ^3H-mannitol”. In addition, the “Epithelial surface area denuded (%)” value in assay [5] (recovery time 60 min) is on record as 4.2 ± 2.5* %; in assay [5] (recovery time 180 min), 0 ± 0** %. Further, the figures for the “Villus height (mm)” value in assay [5] (recovery time 60 min) and in assay [5] (recovery time 180 min) were 0.21 ± 0.02* mm and 0.20 ± 0.01* mm, respectively. The “Isc (result in words)” value in assay [6] (FIG. 4) is “increased Isc”.

Consider `COc1ccc2c(c1)c(CC(=O)O)c(C)n2C(=O)c1ccc(Cl)cc1` [Indo, Indomethacin, reference compound], for which, in assay [5] (recovery time 60 min), the “Epithelial surface area denuded (%)” value is listed as 6.6 ± 2.6* % and the “Villus height (mm)” value is 0.16 ± 0.01* mm. In assay [5] (recovery time 180 min), the “Epithelial surface area denuded (%)” value is listed as 0 ± 0** % and the “Villus height (mm)” value was 0.14 ± 0.03* mm.

Take deoxy-PGE1: in assay [7], the “effects on barrier function (result in words)” value is given as “had not effects”.

The values are drawn from patent US20060281818A1, “Method for treating mucosal disorders” (SUCAMPO AG, NORTH CAROLINA STATE UNIVERSITY, priority 2005, published 2006).
